A short description of this data set: recombinant UMI read abundance after kanamycin selection (control-corrected) (log10(CPM+1)); higher = more efficient recombination; extreme values may be limits of the assay; sequences stand for … in AGTGCAGAGAAAATCGGCCAGTTTTCTCTGCCTGCAGTCCGCATGCCGTGGGACCCCTTGGGTTCTAACCTGTTGCCTAGATTTATGCAGCGGACTGCCTTTCTCCCAAAGTGATAAACCGG…AGGTTGGTTTCACT; site = the 11-nt donor. A digest of the protocol: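 Reported values are log10(CPM+1) from a pooled Escherichia coli screen of donor and donor-binding-loop pairs for the IS621 bridge recombinase. Selection used IPTG (0.07 mM) plus kanamycin, against unselected plating, each in two replicates. Recombinant UMIs were amplified across the donor–target junction, sequenced, converted to CPM, averaged over replicates and scaled by control-derived factors.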

Consider 68 sequences from the supplement of paper PMC11208160.
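Also: IS621 bridge recombinase in Escherichia coli cells against a fixed T5 target plasmid.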

For “CTGGAACCATGGACCGGTTTTCCCGGTAATCCGTATTTGAT (site CCGGAACCTAT)”, the “recombinant UMI read abundance (log10)” value worked out at 0.

Regarding “CTGGAACCATGGACCGGTTTTCCCGGTAATCCGTATTTGAT (site CGGGAACCTAT)”, the “recombinant UMI read abundance (log10)” value is 0.

On to “CTGGAACCATGGACCGGTTTTCCCGGTAATCCGTATTTGAT (site CTGGAACCTAT)”, for which the “recombinant UMI read abundance (log10)” value was determined as 0.

For “CTGGAACCATGGACCGGTTTTCCCGGTAATCCGTATTTGCA (site CTGGAAACTTG)”, the “recombinant UMI read abundance (log10)” value was 0.

Regarding “CTGGAACCATGGACCGGTTTTCCCGGTAATCCGTATTTGCA (site CTGGAACCTTG)”, the “recombinant UMI read abundance (log10)” value is 0.

On to “CTGGAACCATGGACCGGTTTTCCCGGTAATCCGTATTTGCA (site CTGGAAGCTTG)”, for which the “recombinant UMI read abundance (log10)” value turned out to be 0.00806.

As for “CTGGAACCATGGACCGGTTTTCCCGGTAATCCGTATTTGCA (site CTGGAATCTTG)”, the “recombinant UMI read abundance (log10)” value came to 2.36.

With “CTGGACACATGGACCGGTTTTCCCGGTAATCCGTATTTGCA (site CTGGAAACTTG)”, the “recombinant UMI read abundance (log10)” value turned out to be 0.462.

With “CTGGACACATGGACCGGTTTTCCCGGTAATCCGTATTTGCA (site CTGGACACTTG)”, the “recombinant UMI read abundance (log10)” value was determined as 2.59.

Regarding “CTGGACACATGGACCGGTTTTCCCGGTAATCCGTATTTGCA (site CTGGAGACTTG)”, the “recombinant UMI read abundance (log10)” value turned out to be 0.00455.

Regarding “CTGGACACATGGACCGGTTTTCCCGGTAATCCGTATTTGCA (site CTGGATACTTG)”, the “recombinant UMI read abundance (log10)” value was found to be 1.66.

For the sequence “CTGGGCCCATGGACCGGTTTTCCCGGTAATCCGTATTTGCC (site CTGGGCCCTGG)”, the “recombinant UMI read abundance (log10)” value worked out at 0.

Take “CTGGTAACATGGACCGGTTTTCCCGGTAATCCGTATTTGCA (site CTGGAAACTTG)”: the “recombinant UMI read abundance (log10)” value was determined as 1.03.

“CTGGTAACATGGACCGGTTTTCCCGGTAATCCGTATTTGCA (site CTGGCAACTTG)”: the “recombinant UMI read abundance (log10)” value is 0.197.

Consider “CTGGTAACATGGACCGGTTTTCCCGGTAATCCGTATTTGCA (site CTGGGAACTTG)”, for which the “recombinant UMI read abundance (log10)” value was found to be 0.

On to “CTGGTAACATGGACCGGTTTTCCCGGTAATCCGTATTTGCA (site CTGGTAACTTG)”, for which the “recombinant UMI read abundance (log10)” value came out at 2.06.

As to “CTGGTATCATGGACCGGTTTTCCCGGTAATCCGTATTTGAC (site CTAGTATCTGT)”, the “recombinant UMI read abundance (log10)” value stood at 3.16.

In the case of “CTGGTATCATGGACCGGTTTTCCCGGTAATCCGTATTTGAC (site CTCGTATCTGT)”, the “recombinant UMI read abundance (log10)” value is 0.

Regarding “CTGGTATCATGGACCGGTTTTCCCGGTAATCCGTATTTGAC (site CTGGTATCTGT)”, the “recombinant UMI read abundance (log10)” value amounted to 3.22.

With “CTGGTATCATGGACCGGTTTTCCCGGTAATCCGTATTTGAC (site CTTGTATCTGT)”, the “recombinant UMI read abundance (log10)” value came out at 0.816.

As to “CTGGTCGCATGGACCGGTTTTCCCGGTAATCCGTATTTGCA (site CTGGTCGCTTG)”, the “recombinant UMI read abundance (log10)” value stood at 2.01.

Consider “CTGTACCCATGGACCGGTTTTCCCGGTAATCCGTATTTGAG (site CTGTACCCTCT)”, for which the “recombinant UMI read abundance (log10)” value is 0.00463.

Consider “CTGTCAGCATGGACCGGTTTTCCCGGTAATCCGTATTTGGT (site CTGTCAGCTAC)”, for which the “recombinant UMI read abundance (log10)” value came out at 0.563.

As for “CTGTCCTCATGGACCGGTTTTCCCGGTAATCCGTATTTGTT (site CTGTCCTCTAA)”, the “recombinant UMI read abundance (log10)” value is 1.92.

Take “CTGTCGACATGGACCGGTTTTCCCGGTAATCCGTATTTGGT (site CTGTCGACTAC)”: the “recombinant UMI read abundance (log10)” value was 0.884.

Regarding “CTGTCGGCATGGACCGGTTTTCCCGGTAATCCGTATTTGCC (site CTGTCGGCTGG)”, the “recombinant UMI read abundance (log10)” value was determined as 0.

For the sequence “CTGTCTCCATGGACCGGTTTTCCCGGTAATCCGTATTTGAG (site CTGTCTCCTCT)”, the “recombinant UMI read abundance (log10)” value is 0.0686.

For “CTGTCTTCATGGACCGGTTTTCCCGGTAATCCGTATTTGGG (site CTGTCTTCTCC)”, the “recombinant UMI read abundance (log10)” value was 0.0096.

With “CTGTGAACATGGACCGGTTTTCCCGGTAATCCGTATTTGTT (site CTGTGAACTAA)”, the “recombinant UMI read abundance (log10)” value came out at 1.15.

With “CTTACTACATGGACCGGTTTTCCCGGTAATCCGTATTTGGA (site CTTACTACTTC)”, the “recombinant UMI read abundance (log10)” value is 0.205.

“CTTAGGCCATGGACCGGTTTTCCCGGTAATCCGTATTTGAA (site CTTAGGCCTTT)”: the “recombinant UMI read abundance (log10)” value is 0.104.

For the sequence “CTTATCTCATGGACCGGTTTTCCCGGTAATCCGTATTTGTA (site CTTATCTCTTA)”, the “recombinant UMI read abundance (log10)” value worked out at 2.27.

In the case of “CTTATCTCATGGACCGGTTTTCCCGGTAATCCGTATTTGTA (site CTTCTCTCTTA)”, the “recombinant UMI read abundance (log10)” value was found to be 0.475.

For “CTTATCTCATGGACCGGTTTTCCCGGTAATCCGTATTTGTA (site CTTGTCTCTTA)”, the “recombinant UMI read abundance (log10)” value was determined as 0.606.

With “CTTATCTCATGGACCGGTTTTCCCGGTAATCCGTATTTGTA (site CTTTTCTCTTA)”, the “recombinant UMI read abundance (log10)” value is 0.00641.

On to “CTTCACACATGGACCGGTTTTCCCGGTAATCCGTATTTGTA (site CTTCACACTTA)”, for which the “recombinant UMI read abundance (log10)” value was determined as 0.61.

For the sequence “CTTCCGCCATGGACCGGTTTTCCCGGTAATCCGTATTTGAG (site CTTCCGCCTCT)”, the “recombinant UMI read abundance (log10)” value is 0.0295.

Take “CTTCGACCATGGACCGGTTTTCCCGGTAATCCGTATTTGCA (site CTTCGACCTTG)”: the “recombinant UMI read abundance (log10)” value stood at 0.

As to “CTTCGAGCATGGACCGGTTTTCCCGGTAATCCGTATTTGTT (site CTTCGAGCTAA)”, the “recombinant UMI read abundance (log10)” value worked out at 1.59.

In the case of “CTTCGTCCATGGACCGGTTTTCCCGGTAATCCGTATTTGTT (site CTTCGTCCTAA)”, the “recombinant UMI read abundance (log10)” value came to 0.0114.

With “CTTCTATCATGGACCGGTTTTCCCGGTAATCCGTATTTGTA (site CTTCTATCTTA)”, the “recombinant UMI read abundance (log10)” value worked out at 1.62.

For “CTTCTATCATGGACCGGTTTTCCCGGTAATCCGTATTTGTA (site CTTCTCTCTTA)”, the “recombinant UMI read abundance (log10)” value worked out at 0.0109.

In the case of “CTTCTATCATGGACCGGTTTTCCCGGTAATCCGTATTTGTA (site CTTCTGTCTTA)”, the “recombinant UMI read abundance (log10)” value was 0.

On to “CTTCTATCATGGACCGGTTTTCCCGGTAATCCGTATTTGTA (site CTTCTTTCTTA)”, for which the “recombinant UMI read abundance (log10)” value is 0.

Regarding “CTTCTCACATGGACCGGTTTTCCCGGTAATCCGTATTTGTA (site CTTCTCACTTA)”, the “recombinant UMI read abundance (log10)” value was found to be 0.336.

On to “CTTCTCACATGGACCGGTTTTCCCGGTAATCCGTATTTGTA (site CTTCTCCCTTA)”, for which the “recombinant UMI read abundance (log10)” value stood at 0.00809.

Turning to “CTTCTCACATGGACCGGTTTTCCCGGTAATCCGTATTTGTA (site CTTCTCGCTTA)”, the “recombinant UMI read abundance (log10)” value was determined as 0.0103.

For the sequence “CTTCTCACATGGACCGGTTTTCCCGGTAATCCGTATTTGTA (site CTTCTCTCTTA)”, the “recombinant UMI read abundance (log10)” value was determined as 0.

Turning to “CTTCTCTCATGGACCGGTTTTCCCGGTAATCCGTATTTGCA (site CTTCTCTCTTA)”, the “recombinant UMI read abundance (log10)” value was found to be 0.866.

Regarding “CTTCTCTCATGGACCGGTTTTCCCGGTAATCCGTATTTGCA (site CTTCTCTCTTC)”, the “recombinant UMI read abundance (log10)” value is 0.

As to “CTTCTCTCATGGACCGGTTTTCCCGGTAATCCGTATTTGCA (site CTTCTCTCTTG)”, the “recombinant UMI read abundance (log10)” value was 2.46.

Turning to “CTTCTCTCATGGACCGGTTTTCCCGGTAATCCGTATTTGCA (site CTTCTCTCTTT)”, the “recombinant UMI read abundance (log10)” value came out at 0.83.

Consider “CTTCTCTCATGGACCGGTTTTCCCGGTAATCCGTATTTGCT (site CTTCTCTCTAG)”, for which the “recombinant UMI read abundance (log10)” value came out at 2.48.

“CTTCTGCCATGGACCGGTTTTCCCGGTAATCCGTATTTGGG (site CTTCTGCCTCC)”: the “recombinant UMI read abundance (log10)” value is 0.0114.

Turning to “CTTGACTCATGGACCGGTTTTCCCGGTAATCCGTATTTGTA (site CTTGACTCTTA)”, the “recombinant UMI read abundance (log10)” value was 2.26.

Regarding “CTTGAGACATGGACCGGTTTTCCCGGTAATCCGTATTTGGT (site ATTGAGACTAC)”, the “recombinant UMI read abundance (log10)” value worked out at 0.141.

In the case of “CTTGAGACATGGACCGGTTTTCCCGGTAATCCGTATTTGGT (site CTTGAGACTAC)”, the “recombinant UMI read abundance (log10)” value stood at 1.03.

As to “CTTGAGACATGGACCGGTTTTCCCGGTAATCCGTATTTGGT (site GTTGAGACTAC)”, the “recombinant UMI read abundance (log10)” value turned out to be 0.00699.

Consider “CTTGAGACATGGACCGGTTTTCCCGGTAATCCGTATTTGGT (site TTTGAGACTAC)”, for which the “recombinant UMI read abundance (log10)” value amounted to 0.00972.

With “CTTGCATCATGGACCGGTTTTCCCGGTAATCCGTATTTGAT (site CTTGCATCTAT)”, the “recombinant UMI read abundance (log10)” value came to 0.497.

With “CTTGCGGCATGGACCGGTTTTCCCGGTAATCCGTATTTGCT (site ATTGCGGCTAG)”, the “recombinant UMI read abundance (log10)” value is 0.00273.

On to “CTTGCGGCATGGACCGGTTTTCCCGGTAATCCGTATTTGCT (site CTTGCGGCTAG)”, for which the “recombinant UMI read abundance (log10)” value was 0.82.

As to “CTTGCGGCATGGACCGGTTTTCCCGGTAATCCGTATTTGCT (site GTTGCGGCTAG)”, the “recombinant UMI read abundance (log10)” value was 0.00591.

With “CTTGCGGCATGGACCGGTTTTCCCGGTAATCCGTATTTGCT (site TTTGCGGCTAG)”, the “recombinant UMI read abundance (log10)” value amounted to 0.

Regarding “CTTGCGGCATGGACCGGTTTTCCCGGTAATCCGTATTTGGG (site CTTGCGGCTCC)”, the “recombinant UMI read abundance (log10)” value amounted to 0.0147.

Regarding “CTTGGTCCATGGACCGGTTTTCCCGGTAATCCGTATTTGCG (site CTTGGTCCTCG)”, the “recombinant UMI read abundance (log10)” value is 0.00731.

Consider “CTTGTGTCATGGACCGGTTTTCCCGGTAATCCGTATTTGGG (site CTTGTGTCTCC)”, for which the “recombinant UMI read abundance (log10)” value is 0.208.

Regarding “GAAAACCCATGGACCGGTTTTCCCGGTAATCCGTATTTGAT (site GAAAACCCTAT)”, the “recombinant UMI read abundance (log10)” value was determined as 0.
